{
  "source": "patent US8729048B2",
  "about": "“Methods and materials for assessing responsiveness to PARP inhibitors and platinating agents” (Mayo Foundation for Medical Education and Research, priority 2011, dated 2014)",
  "tested_on": "parental M059J cells lacking DNA-PKcs",
  "test": "Clonogenic assay, M059J",
  "type": "cell-based",
  "conditions": "BRCA1 shRNA",
  "experimental": "FIG. 6. […] (A) BRCA1-deficient HCC1937 and BRCA1-reconstituted HCC1937/BRCA1 cells were continuously exposed to ABT-888 in the presence or absence of 125 nM DNA-PKi and assayed for clonogenic survival. Inset, Western blots of cell lysates from HCC1937 and HCC1937/BRCA1. (B) Western blots of M059J and reconstituted M059J+DNA-PKcs lines showing the restoration of DNA-PK expression and the shRNA-mediated knockdown of BRCA1. (C) Clonogenic survival of shRNA transfected M059J/M059J+DNA-PKcs lines treated with ABT-888 for 72 hours. (D) Clonogenic survival of ATM-deficient GM16666 or ATM-reconstituted GM16667 fibroblasts. Cells were exposed to ABT-888 for 48 hours in the presence or absence of 250 nM DNA-PKi, washed, and allowed to form colonies. Inset, Western blots of lysates from GM16666 and GM16667 fibroblasts. […] Results are representative of 3 independent experiments.\nAll siRNA oligonucleotides were purchased from Ambion, Inc. (Austin, Tex.). Sequences, with references, are provided below. PEO1 and PEO4 cells were transfected with 150 picomoles of siRNA using the HiPerfect lipid transfection reagent (Qiagen; Valencia, Calif.). […]\nColony formation assays were performed on siRNA-transfected PEO1 and PEO4 cells 48 hours after the second transfection. […] Colonies containing ≧50 cells were scored manually. […]",
  "data": [
    {"smiles": "C[C@]1(c2nc3c(C(N)=O)cccc3[nH]2)CCCN1", "note": "[ABT-888]", "values": [
      {"measurement": "clonogenic sensitivity to ABT-888 after BRCA1 knockdown", "result": "not sensitized"}
    ]}
  ]
}
